How the values were obtained:
TNF-alpha = TNF-alpha Quantification Assay (ELISA), LPS-stimulated RAW 264.7; format: cell-based; conditions: Mus musculus, RAW264.7; at 10 μM; read-out: TNFα: % inh.
Akt phosphorylation = experiment: Akt Phosphorylation Assay (western blot), Panc-1; format: cell-based, human; conditions: at 10 μM, * = activation
Method in brief: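 Panc-1 (KRas G12D) cells were treated with compound at 10 μM final (0.3% DMSO) for 6 h at 37 °C, or with serial dilutions for IC50. Cells were either serum-starved overnight in 0.5% FBS and then stimulated with 1.5 ng/ml EGF for 15 min, or kept in 10% FBS without stimulation. Akt Ser473 phosphorylation in lysates was read by western blot.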

IL6 = experiment: IL-6 Quantification Assay (ELISA), LPS-stimulated RAW 264.7; format: cell-based; design: inhibition: dose or concentration left out as unconfirmed; conditions: Mus musculus, RAW264.7; read-out: IL-6: % inh.
KRas wild type = experiment: Ras GTP Binding Domain Inhibition Assay (Ras Superfamily Assay); conditions: for KRas wild type + SOS: % inh.: with SOS; for KRas wild type: % inh.: without SOS
Method in brief: (§1)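 Binding of 100 nM fluorescent GTP (Cy3 or Cy5, 45 min, room temperature) was read after washes from plate-captured His-tagged protein. Beforehand, compounds at 20 μM or in dilution series for IC50 sat 3 h on the protein in Tris buffer pH 7.4 or 7.0 with 1% DMSO, Sos GEF optionally added for the last hour.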

KRas G12D mutant = experiment: as above; conditions: for KRas G12D mutant + SOS: % inh.: with SOS; for KRas G12D mutant: % inh.: without SOS
Method in brief: as §1

Rac-1 = molecular target: T1, Rac-1 (Homo sapiens, UniProt P63000); experiment: as above; conditions: read-out: Rac-1: % inh.
T1 construct: made in house
Method in brief: as §1

Structure (SMILES)	KRas wild type + SOS: % inh. (KRas wild type; at 20 μM)	KRas wild type: % inh. (KRas wild type; at 20 μM)	KRas G12D mutant + SOS: % inh. (KRas G12D mutant; at 20 μM)	KRas G12D mutant: % inh. (KRas G12D mutant; at 20 μM)	inhibition at 20 µM (Rac-1) [%]	KRas wild type + SOS: % inh. (KRas wild type; 20 μM compound)	KRas wild type: % inh. (KRas wild type; 20 μM compound)	KRas G12D mutant + SOS: % inh. (KRas G12D mutant; 20 μM compound)	KRas G12D mutant: % inh. (KRas G12D mutant; 20 μM compound)	inhibition at 10 µM (TNF-alpha) [%]	% inh of Akt phosphorylation in Panc-1 (Akt phosphorylation)	inhibition (IL6) [%]
Cc1c(-c2ccn(C)n2)cn2nc(-c3nccn3C)nc(Nc3cc(N4CCOCC4)ccn3)c12 [Compound 222, 5-Methyl-2-(1-methyl-1H-imidazol-2-yl)-6-(1-methyl-1H-pyrazol-3-yl)-N-(4-morpholinopyridin-2-yl)pyrrolo[2,1-f][1,2,4]triazin-4-amine]	D (D = 76-100% inhibition)	D (D = 76-100% inhibition)	D (D = 76-100% inhibition)	D (D = 76-100% inhibition)	76 to 100					0	D* (85-100% activation)	50 to 74
Cc1cnc2c(c1)CCN2c1nc(-c2nccn2C)nn2cc(-c3ccn(C)n3)c(C)c12 [Compound 239, 5-Methyl-2-(1-methyl-1H-imidazol-2-yl)-6-(1-methyl-1H-pyrazol-3-yl)-4-(5-methyl-2,3-dihydro-1H-pyrrolo[2,3-b]pyridin-1-yl)pyrrolo[2,1-f][1,2,4]triazine]	D (D = 76-100% inhibition)	D (D = 76-100% inhibition)	D (D = 76-100% inhibition)	D (D = 76-100% inhibition)	76 to 100					1 to 24	D* (85-100% activation)	50 to 74
COc1cc(Nc2nc(-c3nccn3C)nn3cc(-c4ccn(C)n4)c(C)c23)ncc1C1CC1 [Compound 238, N-(5-Cyclopropyl-4-methoxypyridin-2-yl)-5-methyl-2-(1-methyl-1H-imidazol-2-yl)-6-(1-methyl-1H-pyrazol-3-yl)pyrrolo[2,1-f][1,2,4]triazin-4-amine]	D (D = 76-100% inhibition)	D (D = 76-100% inhibition)	D (D = 76-100% inhibition)	D (D = 76-100% inhibition)	76 to 100					50 to 74	D* (85-100% activation)	75 to 100
Cc1c(-c2ccn(C)n2)cn2nc(-c3nccn3C)nc(Nc3cc4c(cn3)CCO4)c12 [Compound 221, N-(5-Methyl-2-(1-methyl-1H-imidazol-2-yl)-6-(1-methyl-1H-pyrazol-3-yl)pyrrolo[2,1-f][1,2,4]triazin-4-yl)-2,3-dihydrofuro[3,2-c]pyridin-6-amine]	D (D = 76-100% inhibition)	D (D = 76-100% inhibition)	D (D = 76-100% inhibition)	D (D = 76-100% inhibition)	76 to 100					0	D* (85-100% activation)	25 to 49
COc1ccnc(N(C)c2nc(-c3nccn3C)nn3cc(-c4ccn(C)n4)c(C)c23)c1 [Compound 223, N-(4-Methoxypyridin-2-yl)-N,5-dimethyl-2-(1-methyl-1H-imidazol-2-yl)-6-(1-methyl-1H-pyrazol-3-yl)pyrrolo[2,1-f][1,2,4]triazin-4-amine]	0 (0 = 0% inhibition)	B (B = 26-49% inhibition)	A (A = 1-25% inhibition)	B (B = 26-49% inhibition)	26 to 49					1 to 24	B (26-49% inhibition)	0

The next lines start with results.

KRas wild type + SOS: % inh. (KRas wild type; at 20 μM)	KRas wild type: % inh. (KRas wild type; at 20 μM)	KRas G12D mutant + SOS: % inh. (KRas G12D mutant; at 20 μM)	KRas G12D mutant: % inh. (KRas G12D mutant; at 20 μM)	inhibition at 20 µM (Rac-1) [%]	KRas wild type + SOS: % inh. (KRas wild type; 20 μM compound)	KRas wild type: % inh. (KRas wild type; 20 μM compound)	KRas G12D mutant + SOS: % inh. (KRas G12D mutant; 20 μM compound)	KRas G12D mutant: % inh. (KRas G12D mutant; 20 μM compound)	Structure (SMILES)	inhibition at 10 µM (TNF-alpha) [%]	% inh of Akt phosphorylation in Panc-1 (Akt phosphorylation)	inhibition (IL6) [%]
0 (0 = 0% inhibition)	A (A = 1-25% inhibition)	0 (0 = 0% inhibition)	A (A = 1-25% inhibition)	1 to 25					COc1cccc(-c2cn3nc(-c4nccn4C)nc(N[C@H]4C[C@H](OC)C4)c3c2-c2ccccc2)c1OC [Compound 219, 6-(2,3-Dimethoxyphenyl)-N-((1r,3r)-3-methoxycyclobutyl)-2-(1-methyl-1H-imidazol-2-yl)-5-phenylpyrrolo[2,1-f][1,2,4]triazin-4-amine]	75 to 100	D (85-100% inhibition)	75 to 100
B (B = 26-49% inhibition)	C (C = 50-75% inhibition)	B (B = 26-49% inhibition)	C (C = 50-75% inhibition)	50 to 75					COc1ccnc(Nc2nc(-c3nccn3C)nn3cc(-c4c(F)cccc4OC)c(-c4ccccc4)c23)c1 [Compound 217, 6-(2-Fluoro-6-methoxyphenyl)-N-(4-methoxypyridin-2-yl)-2-(1-methyl-1H-imidazol-2-yl)-5-phenylpyrrolo[2,1-f][1,2,4]triazin-4-amine]	25 to 49	D* (85-100% activation)	75 to 100
B (B = 26-49% inhibition)	B (B = 26-49% inhibition)	B (B = 26-49% inhibition)	B (B = 26-49% inhibition)	26 to 49					CO[C@H]1CC[C@@H](Nc2nc(-c3nccn3C)nn3cc(-c4ccncc4)c(-c4ccccc4)c23)C1 (racemic) [Compound 200, rac N-((1R,3S)-3-Methoxycyclopentyl)-2-(1-methyl-1H-imidazol-2-yl)-5-phenyl-6-(pyridin-4-yl)pyrrolo[2,1-f][1,2,4]triazin-4-amine]	1 to 24	B (26-49% inhibition)	1 to 24
B (B = 26-49% inhibition)	B (B = 26-49% inhibition)	B (B = 26-49% inhibition)	C (C = 50-75% inhibition)	50 to 75					COc1cnc(Nc2nc(-c3nccn3C)nn3cc(-c4ccn(C)n4)c(C)c23)cc1C [Compound 236, N-(5-Methoxy-4-methylpyridin-2-yl)-5-methyl-2-(1-methyl-1H-imidazol-2-yl)-6-(1-methyl-1H-pyrazol-3-yl)pyrrolo[2,1-f][1,2,4]triazin-4-amine]	0	B* (26-49% activation)	0
				76 to 100	D (D = 76-100% inhibition)	D (D = 76-100% inhibition)	D (D = 76-100% inhibition)	D (D = 76-100% inhibition)	COc1cc(Nc2nc(-c3nccn3C)nn3cc(-c4cccnc4)c(-c4cccnc4)c23)ncn1 [Compound 170, N-(6-Methoxypyrimidin-4-yl)-2-(1-methyl-1H-imidazol-2-yl)-5,6-di(pyridin-3-yl)pyrrolo[2,1-f][1,2,4]triazin-4-amine]	0	C* (46-84% activation)	50 to 74
A (A = 1-25% inhibition)	A (A = 1-25% inhibition)	A (A = 1-25% inhibition)	A (A = 1-25% inhibition)	1 to 25					CO[C@H]1C[C@H](Nc2nc(-c3nccn3C)nn3cc(-c4ccc(CN)cc4)c(-c4ccccc4)c23)C1.Cl [Compound 206, 6-(4-(Aminomethyl)phenyl)-N-((1r,3r)-3-methoxycyclobutyl)-2-(1-methyl-1H-imidazol-2-yl)-5-phenylpyrrolo[2,1-f][1,2,4]triazin-4-amine hydrochloride salt]	1 to 24	C (50-84% inhibition)	75 to 100
